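Assay format: 96-well plates, 48-hour exposure. Abbreviation: GI50, concentration required for 50% inhibition of growth. The concentration for full growth arrest is given as TGI.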
How the values were obtained:
Assay in all cases: inhibition of tumour cell growth, NCI panel, 48 h
[1] = test system: UACC-62 melanoma
[2] = test system: OVCAR-8 ovarian
[3] = test system: SK-MEL-5 melanoma
[4] = test system: BT-549 breast
[5] = test system: SN12C renal
[6] = test system: U251 CNS
[7] = test system: ACHN renal
[8] = test system: 786-0 renal
[9] = test system: HS 578T breast
[10] = test system: OVCAR-4 ovarian

| Compound | GI50 [1] [nM] | TGI [1] [µM] | GI50 [2] [nM] | TGI [2] [µM] | GI50 [3] [nM] | TGI [3] [µM] | GI50 [4] [nM] | TGI [4] [µM] | GI50 [5] [nM] | TGI [5] [µM] | GI50 [6] [nM] | TGI [6] [µM] | GI50 [7] [nM] | TGI [7] [µM] | GI50 [8] [nM] | TGI [8] [µM] | GI50 [9] [nM] | TGI [9] [µM] | GI50 [10] [nM] | TGI [10] [µM] |
| --- | --- | --- | --- | --- | --- | --- | --- | --- | --- | --- | --- | --- | --- | --- | --- | --- | --- | --- | --- | --- |
| Cc1ccccc1NC(=O)N/C(N)=N/c1nc(C)c(C)s1 | 179 | > 100 | 512 | > 79.6 | 282 | > 100 | 1140 | > 100 | 1230 | > 100 | 305 | > 46.6 | 700 | > 57 | 652 | > 100 | 488 | > 100 | 48000 | > 100 |
| COc1ccc(C(=O)OC2C(OC3C(O)COC(O[C@H]4C[C@H]5[C@@H]6CC=C7C[C@@H](O)CC[C@]7(C)[C@H]6CC[C@]5(C)[C@H]4[C@H](C)C(=O)CCC(C)C)C3OC(=O)C(C)C)OCC(O)C2O)cc1 (stereo not given in full) | 6.68 | 0.0185 | 2820 | 8.4 | 19 | 0.36 | < 2.75 | 3.26 | 3020 | 6.53 | 3.81 | 4.16 | 111 | 4.82 | < 2.75 | 2.99 | 3.43 | 0.0441 | 295 | 5.12 |
| COc1ccc2c(c1)[n+]([O-])c(/C(C)=N/NC(N)=S)c(C)[n+]2[O-] | – | > 100 | – | > 100 | – | > 69.1 | – | > 100 | – | > 100 | – | > 100 | – | > 100 | – | > 100 | – | > 100 | – | > 100 |
| CCCCCCCC(=O)SCC/C=C/[C@@H]1CC(=O)NCc2cccc(n2)C2=N[C@@](C)(CS2)C(=O)N[C@@H](C(C)C)C(=O)O1 | 17.5 | 0.128 | 25.3 | > 33.3 | 27.1 | 0.115 | 190 | > 33.3 | 145 | > 33.3 | 80.2 | 0.782 | 89.7 | 0.693 | 98.9 | > 33.3 | 20.9 | > 10.1 | 150 | > 33.3 |
| C[C@@]1([C@H](OC(=O)c2cccc3ccccc23)C(N)=O)CO1 | 452 | 2.24 | 594 | 22.7 | 2010 | 5.75 | 6150 | 21.8 | 360 | 3.95 | 997 | 7.89 | 396 | 2.2 | 1840 | 14.6 | 3590 | > 24.6 | 4660 | > 76.6 |
| COc1cc(-c2nn(-c3ccc(NC(=O)Nc4ccc(Cl)c(C(F)(F)F)c4)cc3)cc2-c2ccncc2)ccc1Cl | 1770 | 3.75 | 2030 | 7.83 | 1560 | 2.94 | 2010 | 4.57 | 2600 | 8.82 | 1210 | 2.62 | 2020 | 9.71 | 1800 | 4.27 | 1910 | 4.96 | 2340 | 8.45 |
| CC(C)(C)n1nc(C2CC2)cc1NC(=O)Nc1ccc(Cl)cc1 | – | > 100 | – | > 100 | – | > 100 | – | > 100 | – | > 100 | – | > 100 | – | > 100 | – | > 100 | – | > 100 | – | > 100 |
| Cc1ccc(C(=O)Nc2ccc(CN3CCN(C)CC3)c(C(F)(F)F)c2)cc1C#Cc1cnc(N)c2ccc(C#N)cc12 | 21.2 | 3.64 | 541 | > 11.7 | 331 | 6.1 | 10100 | > 50 | 16.4 | 3.07 | 393 | 9.23 | 18.2 | 6.23 | 426 | 3.79 | 161 | > 23.9 | 375 | 11.8 |
| COc1ccc(NC(=O)COc2ccccc2)c(C(N)=O)c1 | 1180 | > 81.2 | 3010 | > 100 | 1110 | > 76.2 | 621 | > 100 | 5530 | > 100 | 742 | 20.1 | 2980 | > 100 | 2180 | 49.4 | 871 | 97.1 | > 44800 | > 100 |
| C=C(c1ccc(OC)c(/C=C/C(=O)c2cc(OC)c(OC)c(OC)c2)c1)c1cc(OC)c(OC)c(OC)c1 | 498 | 2.16 | 716 | 11.9 | 1180 | 2.5 | 894 | 4.22 | 1870 | 9.55 | 773 | 2.12 | 1260 | 2.58 | 1680 | 3.7 | 1460 | 50 | 3700 | > 100 |
| Nc1nc(=O)c2[nH]cnc2n1O | – | > 100 | – | > 100 | – | > 100 | – | > 100 | – | > 100 | – | > 100 | – | > 100 | – | > 100 | – | > 100 | – | > 100 |
| Oc1ccccc1/C=N/Nc1nc2ccccc2s1 | 8970 | > 100 | 12000 | > 100 | 7360 | > 100 | > 100000 | > 100 | 22900 | > 100 | 8100 | > 100 | 6140 | > 100 | 7960 | 89 | 8840 | 58 | 2310 | > 100 |
| COc1ccc(/C=C(/C(=O)N2CCN(c3ccc(C)cc3)CC2)c2cc(OC)c(OC)c(OC)c2)cc1N | 362 | > 100 | 417 | > 100 | 228 | 0.661 | 199 | 4.79 | 483 | > 100 | 397 | > 100 | 203 | > 100 | 320 | > 100 | 291 | > 100 | 3210 | > 100 |
